Measurements published in paper PMC7552967, “Anti-Melanoma Activities of Artemisone and Prenylated Amino-Artemisinins in Combination With Known Anticancer Drugs” (Frontiers in Pharmacology, 2020).

Tests used:
HEK293 cells = assay: MTT cytotoxicity assay, HEK293; assay type: cell-based; conditions: Homo sapiens, 24 h exposure, mean ± SD, three biological replicates
Text: The human cell lines TK10 (human kidney adenocarcinoma), UACC62 (human melanoma) and MCF7 (human breast adenocarcinoma) were obtained from the National Cancer Institute (NCI) as part of a panel widely studied for drug screening and molecular target identification. Melanoma (A375) and human embryonic kidney (HEK293) were acquired from the American Type Culture Collection; ATCC® CRL-1619™ and ATCC® CRL-1573™ respectively. The nontumorigenic human immortalized keratinocyte (HaCaT) cells were a kind donation by the School of Anatomical Sciences, Faculty of Health Sciences, University of the Witwatersrand, South Africa. HaCaT cells were chosen as the nonmalignant control due to their ease of propagation, near normal phenotype and general use as an A375 control ([Dwivedi et al., 2015]; [Lewies et al., 2018]). The A375 cell line is a […] cells line with the BRAF mutation frequently used for in vitro drug screening assays for anti-melanoma drugs ([Couto et al., 2019]). All reagents were of analytical grade and were obtained from Merck (Darmstadt, Germany) unless stated otherwise. Cells were cultured in Dulbecco’s modified essential medium (DMEM; Hyclone, GE healthcare, South Logan, UT, USA) containing 10% fetal bovine serum (FBS), 1% penicillin/streptomycin, 1% 200 mM L-Glutamine and 1% nonessential amino acids (Lonza, Basel, Switzerland) at 37°C in a humidified atmosphere of 5% CO2. […]
The growth inhibitory effects of the compounds were tested in the 3-cell line panel consisting of TK10 (renal), UACC62 (melanoma) and MCF7 (breast) cancer cells by Sulforhodamine B (SRB) assay. In addition, activity was also evaluated against HEK293 cells with the 3-(4,5-dimethylthiazol-2-yl)-2,5-diphenyl tetrazolium bromide (MTT) assay ([Mosmann, 1983]). […] The results were expressed as half maximal inhibitory concentrations (IC50) as described before ([Lewies et al., 2018]). […] After incubation, cell viability was determined using a microplate reader (BioTek®, Vermont, USA) at an excitation wavelength of 560 nm and emission wavelength of 630 nm with DMSO measured as a blank. Cell viability was expressed as a percentage relative to the untreated control, which is assumed to be 100% viable. […] Using the MTT assay data, IC50 values were calculated using GraphPad Prism 8. […] The curve was fitted using the log(inhibitor) vs. response function and the IC50 values calculated ([Lewies et al., 2018]). A crude therapeutic index (fold decrease in IC50 value) was calculated as the IC50 of the noncancerous cell-line/IC50 of the cancerous cell line. […] Drug interactions were evaluated for synergism, additivity or antagonism using multiple drug effect analysis, based on the median-principle. Cells were treated with the drug combinations for 24 h and analyzed. […]

A375 melanoma cells = assay: MTT cell viability assay, A375; assay type: cell-based, human; conditions: for IC50: Homo sapiens, A-375, MTT, 24 h, combinations 1:1, mean ± SD; for Therapeutic index (TI): IC50 of HaCat cells/IC50 of A375 cells
Text: The human cell lines TK10 (human kidney adenocarcinoma), UACC62 (human melanoma) and MCF7 (human breast adenocarcinoma) were obtained from the National Cancer Institute (NCI) as part of a panel widely studied for drug screening and molecular target identification. […] The nontumorigenic human immortalized keratinocyte (HaCaT) cells were a kind donation by the School of Anatomical Sciences, Faculty of Health Sciences, University of the Witwatersrand, South Africa. […] All reagents were of analytical grade and were obtained from Merck (Darmstadt, Germany) unless stated otherwise. Cells were cultured in Dulbecco’s modified essential medium (DMEM; Hyclone, GE healthcare, South Logan, UT, USA) containing 10% fetal bovine serum (FBS), 1% penicillin/streptomycin, 1% 200 mM L-Glutamine and 1% nonessential amino acids (Lonza, Basel, Switzerland) at 37°C in a humidified atmosphere of 5% CO2. Stock solutions of the compounds were prepared in dimethyl sulfoxide (DMSO). All subsequent dilutions were prepared in serum-free DMEM and vehicle controls were included in all experiments
The growth inhibitory effects of the compounds were tested in the 3-cell line panel consisting of TK10 (renal), UACC62 (melanoma) and MCF7 (breast) cancer cells by Sulforhodamine B (SRB) assay. […] Compounds prepared in DMSO were tested at 0.01–100 µM serial dilutions to establish initial inhibitory concentrations. […] After 24 h exposure to compounds, growth medium was removed, cells rinsed twice with 1 ml of phosphate buffered saline (PBS) and 100 µl fresh serum-free medium containing 5 mg/ml MTT solution was added MTT solution was prepared fresh for each analysis). Cells were then incubated for 4 h at 37°C, after which the MTT was removed and substituted with 100 µl dimethyl sulfoxide (DMSO) to dissolve the formazan crystals for an h at 37°C. After incubation, cell viability was determined using a microplate reader (BioTek®, Vermont, USA) at an excitation wavelength of 560 nm and emission wavelength of 630 nm with DMSO measured as a blank. Cell viability was expressed as a percentage relative to the untreated control, which is assumed to be 100% viable. For a positive control, cells were treated with 0.01% Triton-X 100 (Sigma-Aldrich, St Louis, MO, USA) for a period of 4 h. Using the MTT assay data, IC50 values were calculated using GraphPad Prism 8. Data were normalized to the positive (alleged to be 0% viable) and negative controls (presumed to be 100% viable), followed by the log-transformation of the concentration values. […] A crude therapeutic index (fold decrease in IC50 value) was calculated as the IC50 of the noncancerous cell-line/IC50 of the cancerous cell line. […] Drug interactions were evaluated for synergism, additivity or antagonism using multiple drug effect analysis, based on the median-principle. Cells were treated with the drug combinations for 24 h and analyzed. The CompuSyn (ComboSyn, Inc. NJ, USA) software package was used to generate the median-effect plots and combination index plots. […] All experiments were performed at least in triplicate and repeated independently.
Next, the quantitative colorimetric MTT assay was used to determine in vitro cell viability with A375 (melanoma) and HaCat (nonmalignant keratinocyte) cells. […] The IC50 was used to determine a crude therapeutic index (fold increase or decline in IC50).

Row | SMILES | IC50 (HEK293 cells) [µM] | IC50 (A375 melanoma cells) [µM] | Therapeutic index (TI) (A375 melanoma cells)
1 | C[C@@H]1CC[C@H]2[C@@H](C)C(=O)O[C@@H]3O[C@@]4(C)CC[C@@H]1[C@]32OO4 [Artemisinin 2, artemisinin] | 120.7 ± 1.07 | 150 ± 3.61 | 2.5
2 | C[C@H]1[C@H](N2CCS(=O)(=O)CC2)O[C@@H]2O[C@@]3(C)CC[C@H]4[C@H](C)CC[C@@H]1[C@@]24OO3 [Artemisone 4, artemisone] | 86.7 ± 1.09 | 95.7 ± 2.31 | 2.8
3 | CC(C)=CCC/C(C)=C/CC/C(C)=C/CN1CCN([C@@H]2O[C@@H]3O[C@@]4(C)CC[C@H]5[C@H](C)CC[C@@H]([C@H]2C)[C@@]35OO4)CC1 [Farnesylpiperazine-DHA 7, farnesylpiperazine-DHA] | 35.5 ± 1.09 | 32.6 ± 1.08 | 2.1
4 | CC(C)=CCC/C(C)=C/CN1CCN([C@@H]2O[C@@H]3O[C@@]4(C)CC[C@H]5[C@H](C)CC[C@@H]([C@H]2C)[C@@]35OO4)CC1 [Geranylpiperazine-DHA 6, geranylpiperazine-DHA] | 24.3 ± 1.15 | 46.9 ± 0.89 | 2.2
